In this assay the test system is wasp sting. Put plainly: Case: topical CPDS cream for wasp sting. As to conditions: topical cream containing 2% CPDS by weight. Type of assay: in vivo, human. As to the method: An individual was stung by a wasp on their hand. […] Application of CPDS cream was repeated after two hours and every 4 hours thereafter. The swelling and redness vanished after 24 hours.

As to `O=C(O)c1ccc(SSc2ccc(C(=O)O)cn2)nc1` [CPDS, 6,6′-dithiodinicotinic acid], the “time until swelling and redness vanished” value amounted to 24 h. Under “person”, the burning and itching entry is “immediate relief”.
